Source: patent US20130296346A1, “DIPHENYL-AMINE DERIVATIVES: USES, PROCESS OF SYNTHESIS AND PHARMACEUTICAL COMPOSITIONS” (Faes Farma, S.A., priority 2010, published 2013)
“Also recorded” adds a separate entry of the source. Marks after values point to notes of the source that are not given here.

What was measured:
[1] = test system: haematological cancer cell lines; test: Apoptosis induction in haematological cancer cell lines; type: cell-based
EHEB cells = test: Chronic lymphocytic leukaemia xenograft animal model; type: in vivo, CB17-SCID mice
Description: The chronic lymphocytic leukaemia (CLL) EHEB cell line was cultured in RPMI-1640 medium containing 10% (v/v) heat-inactivated fetal bovine serum, 2 mM L-glutamine, 100 U/ml penicillin, and 100 μg/ml streptomycin at 37° C. in humidified 95% air and 5% CO2. Cells were periodically tested for Mycoplasma infection and found to be negative. CB17-severe combined immunodeficiency (SCID) mice (Charles River laboratories, Lyon, France), kept and handled according to institutional guidelines, complying with Spanish legislation under a 12/12 h light/dark cycle at a temperature of 22° C., received a standard diet and acidified water ad libitum. CB17-SCID mice were inoculated subcutaneously into their lower dorsum with 1.5×10^7 EHEB cells in 100 μl PBS and 100 μl Matrigel basement membrane matrix (Becton Dickinson). When tumors were palpable, mice were randomly assigned into cohorts of 10 mice each, receiving i.v. administration (3 times/week) of the compound at the tail. The volume used for each i. v. administration was […] rendering a final drug concentration of 2.5 mg/kg (body weight). Mice i. v. administered with an equal volume of vehicle were run in parallel. The shortest and longest diameter of the tumor were measured with calipers, and tumor volume (10^−3 cm^3) was calculated using the following standard formula: (the shortest diameter)^2×(the longest diameter)×0.5. Animals were sacrificed, according to institutional guidelines, when the diameter of their tumors reached 3 cm or when significant toxicity was observed. Animal body weight and any sign of morbidity were monitored. Drug treatment lasted for 41 days. Then, tumor xenografts were isolated, measured and weighed, and a necropsy analysis involving tumors and distinct organs was carried out. All values were expressed as means±SD. Statistical differences between groups were assessed using the Mann-Whitney test or the Student's t-test. A p value of less than 0.05 was considered statistically significant. Results are depicted in FIG. 1.

[2] = Cytotoxicity for human non-tumoral cells, XTT; type: cell-based; conditions: Fibroblasts
Description: The cytotoxicity of the compounds for human non-tumoral cells was studied in fibroblasts, HUVEC cells and resting PBLs (Peripheral Blood lymphocytes).
Distinct amounts of exponentially growing cells were seeded in 96-well flat-bottomed microtiter plates in a final volume of 100 μl were seeded in 96-well flat-bottomed microtiter plates, and incubated at 37° C. in a humidified atmosphere of 5% CO2/95% air for 24 h to allow the cells attach to the plates. Then, cells were incubated with different concentrations of the assayed compound at 37° C. under the 5% CO2/95% air atmosphere for 72 h. Cell proliferation was quantified using the XTT cell proliferation kit (Roche Molecular Biochemicals, Mannheim, Germany) following the manufacturer's instructions. Briefly, a freshly prepared mixture solution (50 μl) of XTT labelling reagent and PMS (N-methyldibenzopyrazine methyl sulfate) electron coupling reagent was added to each well. The resulting mixtures were further incubated for 4 h in a humidified atmosphere (37° C., 5% CO2), and the absorbance of the formazan product generated was measured with a microtiter plate reader at a test wavelength of 490 nm and a reference wavelength of 655 nm. The IC50 (50% inhibitory concentration) was then calculated as the drug concentration causing a 50% inhibition of cell proliferation. Data are shown as mean values of four independent experiments each performed in triplicate.

HCT-116 = test: Apoptosis, sub-G1 peak and caspase activation; type: cell-based, human; conditions: HCT-116, 10 μM
Description: (§1) Induction of apoptosis in human colon cancer HCT-116 cell line by Compound 3 (FIG. 8A). The induction of apoptosis was quantitated as the percentage of cells in the sub-G1 region (hypodiplody) of cell cycle analysis. Briefly, cells (5×10^5) were centrifuged and fixed overnight in 70% ethanol at 4° C. Cells were washed 3 times with PBS, incubated for 1 h with 1 mg/ml RNaseA and 20 μg/ml propidium iodide at room temperature, and then analyzed for cell cycle with a Becton Dickinson FACSCalibur flow cytometer (San Jose, Calif.). HCT-116 cells were incubated for the indicated times with 10 μM Compound 3, and apoptosis was then quantitated as percentage of cells in the sub-G1 region in cell cycle analysis by flow cytometry. The position of the sub-G1 peak (hypodiploidy), integrated by apoptotic cells, as well as the G0/G1 and G2/M peaks are indicated by arrows. Untreated control cells were run in parallel. The percentage of cells with a DNA content less than G1 (sub-G1) is indicated in each histogram. The experiment shown is representative of three performed Expression of different apoptosis-related proteins during Compound 3 treatment (FIG. 8B), HCT-116 and SW620 cells were treated with 10 μM Compound 3 for the indicated times and analyzed by immunoblotting with specific antibodies for the indicated proteins. […]

SW620 = test: Apoptosis, sub-G1 peak and caspase activation; type: cell-based, human; conditions: SW620, 10 μM
Description: as §1

[3] = 2.5 mg/kg i.v. 3 times/week, 41 days
[4] = ex vivo after 41 days, 2.5 mg/kg i.v. 3 times/week
[5] = vs control, 2.5 mg/kg i.v. 3 times/week, 41 days

## Fc1ccc(CNCCCC=C(c2ccccc2)c2ccccc2)cc1 [Compound 3, (5,5-diphenyl-pent-4-enyl)-(4-fluoro-benzyl)-amine hydrocloride]
[1]
  concentration inducing apoptosis in haematological cancer cell lines: ~10^−6 M
EHEB cells; [3]
  CLL tumor growth compared with the control group: inhibited CLL tumor growth; also recorded: stadistically significant
  necropsy analysis of distinct organs: No significant events or changes in the distinct organs
EHEB cells; compared to drug-free tumor-bearing control mice
  vascularization of isolated tumors: very little vascularization
EHEB cells; [4]
  Tumor Volume: 0.487 cm^3
  Tumor Weight: 0.932 g
EHEB cells; [5]
  Inhibition (%) of Tumor Volume: 74.88** %
  Inhibition (%) of Tumor Weight: 50.69** %
[2]
  IC50 at 72 h: 19 µM
HCT-116
  apoptosis (sub-G1 peak, caspase activation): induces apoptosis
SW620
  apoptosis (sub-G1 peak, caspase activation): induces apoptosis
